Test results reported in US20100113276A1, “USE OF N2-PHENYLAMIDINES AS HERBICIDES” (BAYER CROPSCIENCE AG, priority 2007, published 2010).

Test: log P by HPLC on reversed-phase column (C18), EEC Directive 79/831 Annex V.A8
Format: physicochemical
Conditions: C18, 40° C.; for log p HCO2H: aqueous formic acid / acetonitrile; for log p H3PO4: 0.1% aqueous phosphoric acid / acetonitrile
Experimental: The log P data were determined in accordance with the EEC Directive 79/831 Annex V.A8 by HPLC (High Performance Liquid Chromatography) on a reversed-phase column (C18) using the following methods: […]
Calibration was carried out with the help of unbranched alkan-2-ones (consisting of 3 to 13 or 16 carbon atoms) with known logP values (determination of the logP values via the retention times by means of linear interpolation between two subsequent alkanones).

SMILES	log p acidic	log p neutral	log p HCO2H	log p H3PO4
Cc1cc(Oc2ccc(Cl)c(C(F)(F)F)c2)c(C)cc1N=CN1CCCCC1 [compound 36]	–	6.36	2.59	–
CCN(C)C=Nc1cc(C)c(Oc2ccc(Cl)c(C(C)(C)C)c2)cc1C [compound 50]	2.69	5.96	–	–
CCN(C)C=Nc1cc(C)c(Oc2ccc(C#N)c(C(F)(F)F)c2)cc1C [compound 226]	1.68	–	–	–
Cc1cc(Oc2ccc(C#N)c(C(F)(F)F)c2)c(C)cc1N=CN1CCCCC1 [compound 228]	1.92	5.35	2.14	–
CCN(C)C=Nc1cc(C)c(C=Cc2ccccc2C)cc1C [compound 270]	–	–	2.21	–
CCN(C)C=Nc1cc(C)c(Oc2cccc(Oc3ccccc3)c2)cc1C [compound 290]	2.51	–	–	–
Cc1cc(Oc2cc(Cl)cc(Br)c2)c(C)cc1N=CN(C)C(C)C [compound 328]	2.70	6.81	–	–
CCCN(C)C=Nc1cc(C)c(Oc2ccc(Br)c(C(C)C)c2)cc1C [compound 356]	2.93	7.01	–	–
Cc1cc(Oc2ccc(F)c(C(F)(F)F)c2)c(C)cc1N=CN(C)C [compound 365]	–	–	2.37	–
CCN(C)C=Nc1cc(C)c(Oc2cc(F)cc(C(F)(F)F)c2)cc1C [compound 371]	2.31	5.54	–	–
Cc1cc(Oc2cccc(C(C)(C)C)c2)c(C)cc1N=CN(C)C(C)C [compound 440]	2.96	–	2.72	–
CCN(C)C=Nc1cc(C)c(-c2ccc(C(C)(C)C)cc2)cc1C [compound 446]	2.69	6.30	–	–
CCN(C)C=Nc1cc(C)c(Oc2nc(C(C)(C)C)c(Cl)s2)cc1C [compound 559]	2.76	–	–	–
Cc1cc(Oc2cc(Cl)cc(C(F)(F)F)c2)c(Cl)cc1N=CN(C)C [compound 564]	2.51	–	–	–
Cc1cc(Oc2cc(Cl)cc(C(F)(F)F)c2)c(Cl)cc1N=CN1CCCC1 [compound 567]	2.66	–	–	–
Cc1cc(Oc2cc(Cl)cc(C(F)(F)F)c2)c(Cl)cc1N=CN1CCCCC1 [compound 568]	2.86	–	–	–
CCN(C)C=Nc1cc(Cl)c(Oc2ccc(Cl)c(C(C)C)c2)cc1C [compound 570]	–	6.37	2.95	–
Cc1cc(Oc2ccc(Cl)c(C(C)C)c2)c(Cl)cc1N=CN(C)C(C)C [compound 572]	–	6.70	2.87	–

SMILES	log p acidic	log p neutral	log p HCO2H	log p H3PO4
CCC(C)N(C)C=Nc1cc(Cl)c(Oc2ccc(Cl)c(C(C)C)c2)cc1C (stereo not shown) [compound 573]	2.90	7.14	2.90	–
CCCN(C)C=Nc1cc(Cl)c(Oc2ccc(Cl)c(C(C)(C)C)c2)cc1C [compound 578]	3.06	–	–	–
CCC(C)N(C)C=Nc1cc(Cl)c(Oc2ccc(Cl)c(C(C)(C)C)c2)cc1C (stereo not shown) [compound 579]	3.19	7.36	3.19	–
CCN(C)C=Nc1cc(Cl)c(Oc2ccc(Br)c(C(C)C)c2)cc1C [compound 589]	–	6.58	2.84	–
CCCN(C)C=Nc1cc(Cl)c(Oc2ccc(Br)c(C(C)C)c2)cc1C [compound 590]	2.93	7.01	–	–
CCCN(C)C=Nc1cc(Cl)c(Oc2cc(C(C)(C)C)nn2C)cc1C [compound 597]	1.90	5.09	–	–
CCN(C)C=Nc1cc(Cl)c(Oc2cc(C(C)C)nn2C)cc1C [compound 602]	1.65	4.04	–	–
CCCN(C)C=Nc1cc(Cl)c(Oc2cc(C(C)C)nn2C)cc1C [compound 603]	1.78	4.52	–	–
Cc1cc(Oc2cc(C(C)C)nn2C)c(Cl)cc1N=CN1CCCCC1C (stereo not shown) [compound 606]	1.79	4.75	–	–
Cc1cc(Oc2nc(C(C)(C)C)ns2)c(Cl)cc1N=CN1CCCCC1 [compound 610]	2.21	–	2.21	–
CCN(C)C=Nc1cc(Cl)c(Oc2nc(C3(Cl)CC3)ns2)cc1C [compound 612]	1.72	–	–	–
CCN(C)C=Nc1cc(Cl)c(Oc2ncnc(Oc3ccc(Cl)cc3)c2F)cc1C [compound 620]	–	–	2.20	–
Cc1cc(Oc2ncnc(Oc3ccc(Cl)cc3)c2F)c(Cl)cc1N=CN1CCCCC1 [compound 622]	–	–	2.41	–
CCN(C)C=Nc1cc(F)c(-c2ccc(Cl)c(C(F)(F)F)c2)cc1C [compound 656]	2.37	–	–	–
Cc1cc(-c2ccc(Cl)cc2)c(F)cc1N=CN(C)C [compound 663]	–	–	–	2.04
Cc1cc(-c2ccc(Cl)cc2)c(F)cc1N=CN(C)C(C)C [compound 665]	–	–	–	2.22
CCN(C)C=Nc1cc(F)c(-c2ccc(C(C)(C)C)cc2)cc1C [compound 669]	2.38	–	–	–
CCN(C)C=Nc1cc(F)c(-c2ccc(OC(C)(C)C)cc2)cc1C [compound 673]	2.23	–	–	–

Other lines, results leading:

log p acidic	log p neutral	log p HCO2H	log p H3PO4	SMILES
2.17	5.11	–	–	Cc1cc(Oc2cc(F)cc(Br)c2)c(C)cc1N=CN(C)C [compound 1]
2.38	–	–	–	CCN(C)C=Nc1cc(C)c(Oc2ccc(Cl)c(C(F)(F)F)c2)cc1C [compound 34]
2.05	4.53	–	–	CCN(C)C=Nc1cc(C)c(Oc2cccc(-c3cccnc3Cl)c2)cc1C [compound 130]
–	–	2.45	–	CCN(C)C=Nc1cc(C)c(CCc2ccc(C(F)(F)F)cc2)cc1C [compound 250]
–	–	2.06	–	CCN(C)C=Nc1cc(C)c(C=Cc2ccc(OC)cc2)cc1C [compound 286]
2.37	6.21	–	–	Cc1cc(Oc2cc(F)cc(Br)c2)c(C)cc1N=CN(C)C(C)C [compound 321]
–	–	2.45	–	CCN(C)C=Nc1cc(C)c(CCc2ccccc2F)cc1C [compound 345]
2.29	–	–	–	Cc1cc(Oc2cc(F)cc(C(F)(F)F)c2)c(C)cc1N=CN1CCCCC1 [compound 373]
–	6.70	3.02	–	CCN(C)C=Nc1cc(Cl)c(Oc2ccc(Cl)c(C(C)(C)C)c2)cc1C [compound 388]
2.24	5.62	–	–	Cc1cc(-c2ccc(Cl)cc2C)c(C)cc1N=CN(C)C [compound 393]
2.27	5.59	–	–	CCN(C)C=Nc1cc(C)c(-c2ccc(Cl)c(C)c2)cc1C [compound 398]
–	7.36	–	–	Cc1cc(Oc2ccc(Cl)c(C(C)C)c2)c(C)cc1N=CN(C)C(C)C [compound 401]
–	6.60	2.96	–	Cc1cc(Oc2ccc(Cl)c(C(C)C)c2)c(Cl)cc1N=CN(C)C1CC1 [compound 402]
2.18	–	–	–	CCN(C)C=Nc1cc(C)c(Oc2cc(Cl)cc(C(C)C)n2)cc1C [compound 407]
2.71	5.74	–	–	Cc1cc(-c2ccc(C(C)(C)C)cc2)c(C)cc1N=CN(C)C [compound 445]
2.30	–	–	–	CCN(C)C=Nc1cc(C)c(Oc2cccc(C(C)(CC)OC)c2)cc1C (stereo not shown) [compound 502]
2.38	–	–	–	CCN(C)C=Nc1cc(C)c(Oc2ccc3ccccc3c2)cc1C [compound 538]
1.74	4.33	–	–	CCN(C)C=Nc1cc(C)c(Oc2nc(C(C)C)ns2)cc1C [compound 547]

log p acidic	log p neutral	log p HCO2H	log p H3PO4	SMILES
–	–	–	1.99	CCN(C)C=Nc1cc(C)c(OCc2sc(Cl)nc2Cl)cc1C [compound 555]
2.64	–	–	–	CCN(C)C=Nc1cc(Cl)c(Oc2cc(Cl)cc(C(F)(F)F)c2)cc1C [compound 565]
2.83	–	–	–	CCCN(C)C=Nc1cc(Cl)c(Oc2cc(Cl)cc(C(F)(F)F)c2)cc1C [compound 566]
–	6.79	3.03	–	CCCN(C)C=Nc1cc(Cl)c(Oc2ccc(Cl)c(C(C)C)c2)cc1C [compound 571]
–	6.94	3.24	–	Cc1cc(Oc2ccc(Cl)c(C(C)(C)C)c2)c(Cl)cc1N=CN(C)C1CC1 [compound 577]
–	6.09	2.78	–	CCc1cc(Oc2cc(C)c(N=CN(C)CC)cc2Cl)ccc1Cl [compound 583]
–	6.54	2.84	–	CCCN(C)C=Nc1cc(Cl)c(Oc2ccc(Cl)c(CC)c2)cc1C [compound 584]
–	6.34	2.89	–	CCc1cc(Oc2cc(C)c(N=CN(C)C3CC3)cc2Cl)ccc1Cl [compound 585]
–	6.73	2.74	–	CCc1cc(Oc2cc(C)c(N=CN3CCCCC3)cc2Cl)ccc1Cl [compound 587]
3.21	6.92	–	–	Cc1cc(Oc2ccc(Br)c(C(C)C)c2)c(Cl)cc1N=CN(C)C(C)C [compound 591]
1.84	4.41	1.84	–	CCN(C)C=Nc1cc(Cl)c(Oc2cc(C(C)(C)C)nn2C)cc1C [compound 596]
1.90	5.34	–	–	Cc1cc(Oc2cc(C(C)(C)C)nn2C)c(Cl)cc1N=CN1CCCCC1 [compound 600]
2.01	5.31	2.01	–	CCN(C)C=Nc1cc(Cl)c(Oc2nc(C(C)(C)C)ns2)cc1C [compound 608]
1.98	–	–	–	Cc1cc(Oc2nc(C3(Cl)CC3)ns2)c(Cl)cc1N=CN1CCCCC1 [compound 614]
–	–	–	2.13	CCN(C)C=Nc1cc(F)c(-c2ccc(Cl)cc2)cc1C [compound 664]
1.32	–	–	–	CCN(C)C=Nc1cc(F)c(-c2nnc(C3CC3)s2)cc1C [compound 681]
2.67	–	–	–	CCN(C)C=Nc1cc(Br)c(Oc2ccc(Cl)c(C(C)(C)C)c2)cc1C [compound 697]
2.21	–	–	–	CCN(C)C=Nc1cc(OC)c(Oc2ccc(Cl)c(C(F)(F)F)c2)cc1C [compound 721]
